Data reported in ChEMBL document CHEMBL5226315, “Strategies for Targeting Serine/Threonine Protein Phosphatases with Small Molecules in Cancer” (J Med Chem, 2021).
Starred links: 1 amine or outer side, 2 acyl side, 3 side chain; linkers in the order of their positions; H or OH if unused. Positions of bridges follow the written chain, without caps; N, C: chain ends. Non-standard residues stand in square brackets, D forms with d. Residues, ends and D or L forms follow the SMILES beside them. Adda = CO[C@@H](Cc1ccccc1)[C@@H](C)/C=C(C)/C=C/[C@H](N[*:1])[C@H](C)C(=O)[*:2]; dAsp(3S-Me) = C[C@H](C(=O)[*:3])[C@@H](N[*:1])C(=O)[*:2]; d(γGlu) = O=C(O)[C@@H](CCC(=O)[*:2])N[*:1]; NMeDha = C=C(NC)C(=O)O

What was measured:
NCI-H358 = assay: Anticancer activity against human NCI-H358 cells; format: functional
[1] = Inhibition of porcine testis PP4; set-up: species or system Sus scrofa
[2] = Inhibition of rabbit skeletal muscle PP1 using [3H]-phosphohistone as substrate; set-up: species or system Oryctolagus cuniculus
[3] = molecular target: T1, Serine/threonine-protein phosphatase 5 (Homo sapiens, UniProt P53041); assay: Inhibition of PP5 (unknown origin)
T1 sequence (P53041 whole entry): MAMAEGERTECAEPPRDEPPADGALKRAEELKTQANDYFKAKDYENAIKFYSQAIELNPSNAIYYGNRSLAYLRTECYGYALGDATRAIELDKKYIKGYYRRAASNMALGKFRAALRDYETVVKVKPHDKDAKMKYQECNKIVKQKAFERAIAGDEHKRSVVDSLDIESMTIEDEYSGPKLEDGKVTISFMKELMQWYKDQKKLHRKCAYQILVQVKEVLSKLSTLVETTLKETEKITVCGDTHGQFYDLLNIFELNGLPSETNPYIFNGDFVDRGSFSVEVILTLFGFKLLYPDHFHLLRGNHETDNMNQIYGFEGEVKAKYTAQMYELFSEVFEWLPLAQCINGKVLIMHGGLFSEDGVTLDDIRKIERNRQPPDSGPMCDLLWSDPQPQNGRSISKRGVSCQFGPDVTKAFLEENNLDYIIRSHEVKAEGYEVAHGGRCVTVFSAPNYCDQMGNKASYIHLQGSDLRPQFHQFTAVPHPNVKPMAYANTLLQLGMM

[4] = molecular target: T2, Serine/threonine-protein phosphatase 6 catalytic subunit (Homo sapiens, UniProt O00743); assay: Inhibition of PP6 (unknown origin)
T2 sequence (O00743 whole entry): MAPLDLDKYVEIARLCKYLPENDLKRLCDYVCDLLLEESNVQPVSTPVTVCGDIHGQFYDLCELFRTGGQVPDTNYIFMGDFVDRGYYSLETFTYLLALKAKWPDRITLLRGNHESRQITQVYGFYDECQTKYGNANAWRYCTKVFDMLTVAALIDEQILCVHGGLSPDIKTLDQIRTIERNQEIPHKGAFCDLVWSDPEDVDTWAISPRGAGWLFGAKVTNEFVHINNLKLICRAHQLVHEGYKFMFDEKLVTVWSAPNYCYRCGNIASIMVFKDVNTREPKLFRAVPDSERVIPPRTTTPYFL

[5] = Inhibition of PP7 (unknown origin); set-up: species or system Homo sapiens
[6] = Inhibition of rabbit skeletal muscle PP2A using [3H]-phosphohistone as substrate; set-up: species or system Oryctolagus cuniculus
[7] = Inhibition of PP2A (unknown origin) using [3H]-phosphohistone as substrate by liquid scintillation counting analysis; set-up: species or system Homo sapiens
[8] = Inhibition of PP3 (unknown origin) using [3H]-phosphohistone as substrate by liquid scintillation counting analysis; set-up: species or system Homo sapiens
[9] = Inhibition of PP1 (unknown origin) using [3H]-phosphohistone as substrate by liquid scintillation counting analysis; set-up: species or system Homo sapiens
[10] = Inhibition of PP7 (unknown origin) using [3H]-phosphohistone as substrate by liquid scintillation counting analysis; set-up: species or system Homo sapiens
[11] = Inhibition of PP4 (unknown origin) using [3H]-phosphohistone as substrate by liquid scintillation counting analysis; set-up: species or system Homo sapiens
[12] = molecular target: T1, Serine/threonine-protein phosphatase 5; assay: Inhibition of PP5 (unknown origin) using [3H]-phosphohistone as substrate by liquid scintillation counting analysis
Homo sapiens = species: Homo sapiens; assay: Activation of PP2A (unknown origin) at 1000 nM relative to control; settings: filed as activator
[13] = molecular target: T3, Serine/threonine-protein phosphatase 5 (Homo sapiens) (UniProt P53041); assay: Activation of PP5 (unknown origin) assessed as fold increase in activity at > 100000 nM relative to control; settings: filed as activator
T3 sequence (whole entry): T1 sequence (P53041 whole entry)

[14] = molecular target: T3, Serine/threonine-protein phosphatase 5 (Homo sapiens); assay: Inhibition of human full length PP5 expressed in Escherichia coli Rosetta gami2(DE3)pLysS at >1 x 10^6nM relative to control; settings: dose > 1.0 10^6nM
[15] = molecular target: T4, Serine/threonine-protein phosphatase 2A catalytic subunit alpha isoform (Homo sapiens, UniProt P67775); assay: Inhibition of human PP2AC using [3H]-phosphohistone as substrate
[16] = Inhibition of PP1 (unknown origin); set-up: species or system Homo sapiens
[17] = molecular target: T1, Serine/threonine-protein phosphatase 5; assay: Activation of recombinant human PP5 (16 to 499 residues) Escherichia coli BL21 (DE3) using pNPP incubated for 60 mins
[18] = molecular target: T2, Serine/threonine-protein phosphatase 6 catalytic subunit; assay: Inhibition of PP6 (unknown origin) using [3H]-phosphohistone as substrate by liquid scintillation counting analysis
[19] = molecular target: T1, Serine/threonine-protein phosphatase 5; assay: Inhibition of human PP5 using [3H]-phosphohistone as substrate
[20] = Inhibition of porcine PP4 using [33P]-labelled substrate; set-up: species or system Sus scrofa
[21] = Inhibition of PP3 (unknown origin); set-up: species or system Homo sapiens
[22] = molecular target: T4, Serine/threonine-protein phosphatase 2A catalytic subunit alpha isoform; assay: Inhibition of PP2A (unknown origin)
[23] = Inhibition of PP3 activity in human Jurkat J77 cells assessed as dephosphorylation of substrate; format: cell-based
[24] = Inhibition of PP4 (unknown origin); set-up: species or system Homo sapiens

T4 sequence (P67775 whole entry, canonical isoform): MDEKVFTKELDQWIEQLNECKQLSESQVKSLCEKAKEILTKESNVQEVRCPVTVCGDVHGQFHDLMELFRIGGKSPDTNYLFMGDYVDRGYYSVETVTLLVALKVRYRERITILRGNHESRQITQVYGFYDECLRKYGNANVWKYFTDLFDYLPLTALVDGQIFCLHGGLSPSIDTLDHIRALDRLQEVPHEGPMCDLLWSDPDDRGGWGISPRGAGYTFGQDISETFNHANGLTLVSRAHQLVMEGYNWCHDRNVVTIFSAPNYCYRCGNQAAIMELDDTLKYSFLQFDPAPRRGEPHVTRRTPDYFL

In the case of `O=S(=O)(N[C@@H]1CCC[C@H](N2c3ccccc3Oc3ccccc32)[C@H]1O)c1ccc(OC(F)(F)F)cc1`, the GI50 (NCI-H358) is reported as 5 10^3nM.

Compound `C=C1[C@@H](O)[C@@H]2O[C@]3(CC[C@H](/C=C/[C@H](C)[C@@H]4CC(C)=C[C@@]5(OC(C[C@@](C)(O)C(=O)O)CC[C@H]5O)O4)O3)CC[C@H]2O[C@@H]1[C@@H](O)C[C@H](C)[C@H]1O[C@@]2(CCCCO2)CC[C@H]1C` (some centres undefined) has an IC50 [1] of 0.1 nM, an IC50 [2] of 0.23 nM and an IC50 [3] of 3.5 nM. The IC50 [4] was 1 nM, the IC50 [5] was > 1000 nM and the IC50 [6] was 0.94 nM.

In the case of `C/C=C1/C(=O)N[C@H](OC(=O)O)[C@H](C)C(=O)N[C@@H](CCCNC(=N)N)C(=O)N[C@@H](/C=C/C(C)=C/[C@H](C)[C@H](Cc2ccccc2)OC)[C@H](C)C(=O)N[C@H](OC(=O)O)CCC(=O)N1C`, the IC50 [7] is reported as 0.04 nM, the IC50 [8] is reported as > 1000 nM and the IC50 [9] is reported as 1.7 nM. The IC50 [10] was > 1000 nM.

Compound `C=C/C(=C/C(=O)C[C@H](C)C[C@@H](C)CC[C@H](O)[C@H](C)C(=O)C[C@@H](O)[C@@H](C)[C@@H](C)OC(=O)C[C@@H](O)C1=C(C)C(=O)OC1=O)CC` has an IC50 [11] of 44.4 nM, an IC50 [8] of 17500 nM and an IC50 [9] of 0.4 nM. It also gave an IC50 [12] of 11.9 nM.

`CCCCCCCCc1ccc(CCC(N)(CO)CO)cc1` gave an Activity (Homo sapiens) of 175%.

Compound `COc1ccc(-c2nc(Cc3ccc(Cl)cc3)no2)cc1OC` has a fold change (FC) [13] of 4.

`Nc1ccc(-c2nc3ccc(-c4nc5ccc(N)cc5[nH]4)cc3[nH]2)cc1` showed an inhibition [14] of 40%.

`CN1CCN(C(=O)C2C(C(=O)O)C3CC[C@@H]2O3)CC1` (single isomer, unassigned) showed an IC50 [15] of 400 nM and an IC50 [16] of 2.4 nM.

Compound `CCCCC/C=C\C/C=C\C/C=C\C/C=C\CCCC(=O)O` [ARACHIDONIC ACID] has an EC50 [17] of 78000 nM.

`COC[C@@H]([C@H](O)[C@H](O)C(=O)NCC[C@H](C)c1nc(/C=C/C[C@@H]2O[C@]3(C[C@@H](O)[C@@H]2C)O[C@H]([C@H](C[C@H](O)[C@H](C)[C@H](O)[C@H](C)/C=C(C)/C(C)=C/C=C/C(C)=C\C#N)OC)[C@H](OP(=O)(O)O)C3(C)C)co1)N(C)C` [CALYCULIN A] showed an IC50 [11] of 0.2 nM, an IC50 [18] of 10 nM and an IC50 [15] of 0.25 nM. For the same compound, the IC50 [7] was 1.5 nM, the IC50 [8] was > 1000 nM and the IC50 [19] was 3 nM.

Work on `C[C@@]12C(=O)OC(=O)[C@]1(C)[C@H]1CC[C@@H]2O1` [CANTHARIDIN] yielded an IC50 [3] of 600 nM, an IC50 [4] of 8000 nM and an IC50 [16] of 1700 nM. The IC50 [20] was 50 nM, the IC50 [21] was > 500000 nM and the IC50 [22] was 160 nM. The IC50 [19] was 400 nM.

With `O=C(O)CCCCCCCCCCCC[C@@H]1C=CCC1` [CHAULMOOGRIC ACID] the EC50 [17] was 130000 nM.

In the case of `C[C@@](O)(/C=C/[C@H]1CC=CC(=O)O1)[C@@H](C[C@@H](O)\C=C/C=C\C=C\CO)OP(=O)(O)O` [FOSTRIECIN], the IC50 [11] is reported as 3 nM, the IC50 [8] is reported as > 100000 nM and the IC50 [12] is reported as > 10000 nM.

For `C=C1C(=O)N[C@H](C)C(=O)N[C@@H](CC(C)C)C(=O)N[C@@H](C(=O)O)[C@H](C)C(=O)N[C@@H](CCCNC(=N)N)C(=O)N[C@@H](/C=C/C(C)=C/[C@H](C)[C@H](Cc2ccccc2)OC)[C@H](C)C(=O)N[C@@H](C(=O)O)CCC(=O)N1C` [MICROCYSTIN-LR] (R[Adda][d(γGlu)][NMeDha][dA]L[dAsp(3S-Me)]-OH; lactam N-7), the IC50 [1] was 0.15 nM, the IC50 [2] was 10 nM and the IC50 [3] was 1 nM. It also gave an IC50 [21] of 200 nM and an IC50 [6] of 0.1 nM.

Compound `C=CC[C@@H]1/C=C(\C)C[C@H](C)C[C@H](OC)[C@H]2O[C@@](O)(C(=O)C(=O)N3CCCC[C@H]3C(=O)O[C@H](/C(C)=C/[C@@H]3CC[C@@H](O)[C@H](OC)C3)[C@H](C)[C@@H](O)CC1=O)[C@H](C)C[C@@H]2OC` [TACROLIMUS ANHYDROUS] has an IC50 [23] of 0.4 nM.

With `CO[C@H]([C@H](O)CC(=O)[C@@H](C)[C@@H](O)CC[C@@H](C)[C@@H]1O[C@]2(CC[C@@H](C)[C@H](CC[C@H](C)C(C)=O)O2)CC[C@@H]1C)[C@H](OC(=O)C[C@@H](O)C1=C(C)C(=O)OC1=O)C(C)C` [TAUTOMYCIN] the IC50 [24] was 0.4 nM, the IC50 [2] was 0.038 nM and the IC50 [3] was 10 nM. For the same compound, the IC50 [7] was 5.3 nM and the IC50 [21] was > 1000 nM.
